In ChEMBL document CHEMBL1201862, “PubChem BioAssay data set” (2004):
The source made the active and inactive calls.

Key:
Type in all cases: functional
[1] = biological target: T1, Sentrin-specific protease 6 (Homo sapiens, UniProt Q9GZR1);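 note: Luminescence-based dose-response confirmatory assay of SENP6 inhibition, following up an ultra-high-throughput screen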
T1 sequence (Q9GZR1 whole entry): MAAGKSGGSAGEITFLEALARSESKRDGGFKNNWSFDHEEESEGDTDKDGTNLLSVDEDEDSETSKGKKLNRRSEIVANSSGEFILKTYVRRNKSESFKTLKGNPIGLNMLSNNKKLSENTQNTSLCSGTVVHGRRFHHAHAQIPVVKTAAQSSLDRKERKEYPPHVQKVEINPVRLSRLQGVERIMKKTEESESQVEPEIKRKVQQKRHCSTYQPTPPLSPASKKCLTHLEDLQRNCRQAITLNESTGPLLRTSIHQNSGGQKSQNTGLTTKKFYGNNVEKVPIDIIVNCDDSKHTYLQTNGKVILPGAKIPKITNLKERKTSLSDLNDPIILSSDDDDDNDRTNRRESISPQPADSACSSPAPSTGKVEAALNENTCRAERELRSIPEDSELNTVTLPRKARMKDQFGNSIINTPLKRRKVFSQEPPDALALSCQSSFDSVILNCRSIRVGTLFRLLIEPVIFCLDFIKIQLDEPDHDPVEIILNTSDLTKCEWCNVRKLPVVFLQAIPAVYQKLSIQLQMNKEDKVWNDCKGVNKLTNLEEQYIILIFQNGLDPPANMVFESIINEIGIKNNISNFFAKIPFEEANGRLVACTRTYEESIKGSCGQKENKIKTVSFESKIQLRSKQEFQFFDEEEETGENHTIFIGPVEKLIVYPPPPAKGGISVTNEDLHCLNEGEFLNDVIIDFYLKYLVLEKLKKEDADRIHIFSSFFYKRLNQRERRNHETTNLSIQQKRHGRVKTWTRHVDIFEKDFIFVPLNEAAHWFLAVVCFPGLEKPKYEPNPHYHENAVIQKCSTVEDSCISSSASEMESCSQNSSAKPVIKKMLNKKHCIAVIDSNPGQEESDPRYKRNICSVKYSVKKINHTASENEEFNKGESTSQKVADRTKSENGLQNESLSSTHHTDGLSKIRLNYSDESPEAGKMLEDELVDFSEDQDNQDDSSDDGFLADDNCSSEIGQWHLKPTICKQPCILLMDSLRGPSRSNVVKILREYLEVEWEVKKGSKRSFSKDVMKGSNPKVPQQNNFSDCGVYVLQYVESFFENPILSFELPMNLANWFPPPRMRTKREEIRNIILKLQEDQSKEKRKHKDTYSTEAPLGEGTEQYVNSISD

[2] = biological target: T2, Replicative DNA helicase DnaB (Mycobacterium tuberculosis, UniProt P9WMR3); test: DnaB intein splicing inhibitors, dose response, biochemical, cell-free fluorescence (AID 449749)
T2 sequence (P9WMR3 whole entry): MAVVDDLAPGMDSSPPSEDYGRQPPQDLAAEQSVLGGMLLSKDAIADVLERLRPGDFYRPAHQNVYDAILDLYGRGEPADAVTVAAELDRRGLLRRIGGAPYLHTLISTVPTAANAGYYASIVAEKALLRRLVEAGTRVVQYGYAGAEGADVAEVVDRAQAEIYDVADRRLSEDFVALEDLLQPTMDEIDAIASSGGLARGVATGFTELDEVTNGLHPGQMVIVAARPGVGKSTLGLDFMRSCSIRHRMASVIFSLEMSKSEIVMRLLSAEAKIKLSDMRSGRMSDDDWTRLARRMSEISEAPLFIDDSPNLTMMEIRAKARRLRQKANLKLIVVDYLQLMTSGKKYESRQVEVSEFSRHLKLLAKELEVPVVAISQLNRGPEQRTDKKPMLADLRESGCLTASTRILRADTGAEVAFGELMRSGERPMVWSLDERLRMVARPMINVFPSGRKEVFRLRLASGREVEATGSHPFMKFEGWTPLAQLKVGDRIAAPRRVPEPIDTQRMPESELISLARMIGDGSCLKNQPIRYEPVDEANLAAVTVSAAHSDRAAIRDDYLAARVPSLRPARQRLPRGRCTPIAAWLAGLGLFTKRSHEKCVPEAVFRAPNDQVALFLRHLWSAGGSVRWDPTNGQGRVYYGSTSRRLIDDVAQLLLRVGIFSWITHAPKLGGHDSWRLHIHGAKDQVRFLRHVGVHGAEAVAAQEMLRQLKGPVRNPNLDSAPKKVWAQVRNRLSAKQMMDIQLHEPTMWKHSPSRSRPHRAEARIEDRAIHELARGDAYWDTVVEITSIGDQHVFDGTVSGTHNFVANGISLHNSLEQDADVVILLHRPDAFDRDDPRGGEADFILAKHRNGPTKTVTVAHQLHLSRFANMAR

Protein RecA = biological target: T3, Protein RecA (Mycobacterium tuberculosis, UniProt P9WHJ3); test: Fluorescence Cell-Free Homogeneous Dose Retest to Identify Inhibitors of RecA-Intein Splicing Activity. [Related pubchem assays (depositor defined):AID2097, AID2223, AID489010, AID492950]
T3 sequence (P9WHJ3 whole entry): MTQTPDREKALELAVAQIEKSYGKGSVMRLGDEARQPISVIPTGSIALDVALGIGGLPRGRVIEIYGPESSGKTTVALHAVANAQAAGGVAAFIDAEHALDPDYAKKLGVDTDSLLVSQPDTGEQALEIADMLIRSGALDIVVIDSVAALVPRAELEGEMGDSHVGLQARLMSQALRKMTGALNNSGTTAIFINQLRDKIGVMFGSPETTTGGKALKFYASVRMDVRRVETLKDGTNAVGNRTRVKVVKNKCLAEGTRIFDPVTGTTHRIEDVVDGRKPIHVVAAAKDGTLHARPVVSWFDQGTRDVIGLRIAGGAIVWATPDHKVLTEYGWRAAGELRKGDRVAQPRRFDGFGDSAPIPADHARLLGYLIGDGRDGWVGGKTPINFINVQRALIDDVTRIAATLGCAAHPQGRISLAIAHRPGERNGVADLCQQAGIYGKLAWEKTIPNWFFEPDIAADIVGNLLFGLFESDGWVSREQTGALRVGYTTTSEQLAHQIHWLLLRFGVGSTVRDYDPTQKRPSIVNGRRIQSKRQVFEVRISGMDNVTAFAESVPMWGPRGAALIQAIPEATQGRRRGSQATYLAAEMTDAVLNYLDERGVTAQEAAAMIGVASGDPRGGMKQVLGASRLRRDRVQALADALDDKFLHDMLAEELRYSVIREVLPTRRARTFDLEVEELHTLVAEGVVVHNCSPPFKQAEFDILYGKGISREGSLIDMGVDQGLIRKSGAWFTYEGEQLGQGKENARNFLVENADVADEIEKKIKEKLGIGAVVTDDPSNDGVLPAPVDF

| SMILES | IC50 [1] | AC50 [2] | EC50 (Protein RecA) |
| --- | --- | --- | --- |
| Cc1ccc(C(=O)c2c(C)oc3c2C(=O)C(=O)c2ccccc2-3)cc1 | 4.76 µM (active) | – | – |
| CN(C)c1ncc(C2=C(Cl)C(=O)C(N3CCCC3)=C(Cl)C2=O)s1 | – | > 380 µM (inactive) | 3.81 µM (active) |
| O=C1C(Cl)=C(NCc2cccnc2)C(=O)c2ccccc21 | – | 4.75 µM (active) | 2.17 µM (active) |
| O=C1C(O)=C/C(=N\c2ccccc2O)c2ccccc21 | 2.95 µM (active) | 27.4 µM (active) | 12.3 µM (active) |
| Cc1cnc(NC(=O)c2sc3ccccc3c2Cl)s1 | > 100 µM (inactive) | – | – |
| Nc1ccc(Br)c2cccnc12 | 7.46 µM (active) | – | – |
| Cc1ccc(Nc2cc(C)nn2-c2nc(C)cc(O)n2)cc1 | – | 13.6 µM (active) | 61.4 µM (active) |
